In publication PMC5068747, “Using C. elegans Forward and Reverse Genetics to Identify New Compounds with Anthelmintic Activity” (PLoS Neglected Tropical Diseases, 2016):

How the values were obtained:
Format in all cases: in vivo, Caenorhabditis elegans
[1] = tested on: C. elegans CB3474 (ben-1(e1880), benomyl resistant); assay: IC50 on benzimidazole resistant C. elegans strain; details: Caenorhabditis elegans, 120 h; 5 days exposure, 2 L4 per well, three biological replicates
[2] = tested on: C. elegans mitochondrial complex II (mev-1, sdha-1, sdhb-1, sdhd-1) mutant strains; assay: Resistance of mitochondrial complex II mutant MMP strains to CID 2747322
From the text: CID 2747322 shares some structural similarity to the WACT-11 compound identified by. […] This led us to examine MMP strains with mutations in the other three mitochondrial complex II subunits; sdha-1, sdhb-1 and sdhd-1, to see if any of these strains are also resistant to CID 2747322. For thirteen strains with sdha-1 missense mutations, three are resistant. For eight strains with sdhb-1 missense mutations, two are resistant. For sdhd-1, one of five MMP strains is resistant (Table 5). To better understand how these different alleles might alter drug effectiveness, we mapped all of these mutations plus gk3613 onto an X-ray resolved protein crystal structure of the mitochondrial complex II of Ascaris suum (PDB: 3VRB) (Fig 3a).

[3] = tested on: C. elegans VC2010; assay: Manual inspection of growth, brood size, developmental stage and recovery of C. elegans in drug
Experimental: WormScan is a powerful tool to identify compounds with potential effects on the nematode, but it is still necessary to do manual inspection of wells with few animals to determine details of growth, behavior and fecundity. Wild-type worms grown in 90 μM CID 2747322 have brood sizes reduced by 97%. […] All current classes of anthelmintic have greater specificity towards certain life-stages. It is interesting that when removed from the drug L1s will recover and develop, and generally become fertile adults (See S3 Fig).
Supplementary file pntd.0005058.s002.tiff: S2 Fig Developmental stage of inhibition in C. elegans after CID 2747322 exposure. Ten VC2010 L1 stage C. elegans were sorted into a DMSO control well or 90 μM of CID 2747322. Nematodes were removed from the DMSO control or CID 2747322 after 24/48/72 hours and allowed to recover for 30 minutes on standard agar plates. (TIFF) Click here for additional data file.
Supplementary file pntd.0005058.s003.tiff: S3 Fig Development of C. elegans after removel from CID 2747322. Greater than 50 VC2010 L1 stage C. elegans were sorted into a DMSO control well or 90 μM of CID 2747322. Nematodes were removed from DMSO control or CID 2747322 after 2 days of exposure and left to recovery for 24/48/72 hours. (TIFF) Click here for additional data file.

SMILES: COc1ccc(OCCNC(=O)c2ccccc2C(F)(F)F)cc1 [CID 2747322, N-[2-(4-methoxyphenoxy)ethyl]-2-(trifluoromethyl)benzamide]
- IC50 [1]: 4 µM
- Resistance ([2]; strain VC20295, sdhd-1 A30V): none
- Resistance ([2]; strain VC20401, sdhb-1 S209L): resistant
- Resistance ([2]; strain VC20417, sdha-1 E305K): none
- Resistance ([2]; strain VC20501, mev-1 S178N): none
- Resistance ([2]; strain VC20587, sdhb-1 E294K): none
- Resistance ([2]; strain VC20602, mev-1 G77S): resistant
- Resistance ([2]; strain VC30090, sdha-1 G363E): sensitive
- Resistance ([2]; strain VC30107, sdha-1 S292T): sensitive
- Resistance ([2]; strain VC30120, sdhd-1 L59F): none
- Resistance ([2]; strain VC40073, sdha-1 S142F): sensitive
- Resistance ([2]; strain VC40186, sdhb-1 D192E): none
- Resistance ([2]; strain VC40193, sdhb-1 T285I): resistant
- Resistance ([2]; strain VC40304, sdha-1 P385S): none
- Resistance ([2]; strain VC40350, sdha-1 V131I): none
- Resistance ([2]; strain VC40364, sdhb-1 N118I): sensitive
- Resistance ([2]; strain VC40386, sdhd-1 A97V): resistant
- Resistance ([2]; strain VC40391, sdha-1 G335E): resistant
- Resistance ([2]; strain VC40423, sdhb-1 I280S): sensitive
- Resistance ([2]; strain VC40533, sdha-1 R482C): resistant
- Resistance ([2]; strain VC40570, sdhd-1 L120F): none
- Resistance ([2]; strain VC40576, sdha-1 D317N): sensitive
- Resistance ([2]; strain VC40631, sdha-1 H504Y): none
- Resistance ([2]; strain VC40752, sdhb-1 A34V): sensitive
- Resistance ([2]; strain VC40764, sdha-1 A425V): sensitive
- Resistance ([2]; strain VC40765, sdhb-1 L197F): none
- Resistance ([2]; strain VC40770, sdha-1 E472K): none
- Resistance ([2]; strain VC40781, mev-1 Y152D): resistant
- Resistance ([2]; strain VC40799, mev-1 R52C): none
- Resistance ([2]; strain VC40903, sdhd-1 D36N): none
- Resistance ([2]; strain VC40934, mev-1 G88E): none
- Resistance ([2]; strain VC41025, sdha-1 S570F): sensitive
- developmental stage of inhibition ([3]; 90 μM, while maintained in drug): arrest at the first larval stage (L1)
- outcome after exposure / removal from drug ([3]; L1s removed from the drug): reversible inhibition
- brood sizes reduced ([3]; wild-type worms grown in 90 μM): 97%
